In PMC6271476, “Synthesis, Anticancer Activity and UPLC Analysis of the Stability of Some New Benzimidazole-4,7-dione Derivatives” (Molecules, 2013):
Like-named read-outs stand apart in the source and are kept apart here.

Tests used:
[1] = system: human lung adenocarcinoma A549 cells; experiment: WST-1 cell viability assay, growth inhibition of A549 cells under normoxia and hypoxia; conditions: for inhibition of the cell growth / decrease of cell viability compared to control cells: compound at 10 µM, 48 h; for Differential cytotoxicity O/H (hypoxic/aerobic cytotoxicity coefficient): ratio IC50 normoxia / IC50 hypoxia, A549
Protocol: (§1) The human lung adenocarcinoma A549 cell line, purchased from Health Protection Agency Culture Collections (ECACC, Salisbury, UK), was cultured in F12K medium (HyClone, Loughborough, UK) supplemented with 10% heat-inactivated foetal bovine serum (FBS), penicillin (10 U/mL) and streptomycin (10 µg/mL) in air with 5% CO2 at 37 °C. Hypoxic cells were obtained by culturing in a hypoxic incubator in 1% O2 and 5% CO2 at 37 °C for 24 h before treatment.
(§2) In order to determine the anticancer activity of the analysed compounds we evaluated the cell viability using THE WST-1 assay (Millipore, Billerica, MA, USA) according to the manufacturer’s instructions.
(§3) The absorbance was determined at 420 nm using a microplate reader (Synergy H1, Bio-Tek, Winooski, VT, USA) after 3 h of incubation at 37 °C.
(§4) In order to determine the anticancer activity of the analysed compounds we evaluated the cell viability using the WST-1 assay, which is based on the conversion of the tetrazolium salt WST-1 to formazan by cellular mitochondrial dehydrogenases. Therefore, the amount of formazan dye formed directly correlates with the number of live cells in the culture.
(§5) A549 cells were seeded in 96-well plates at a density of 5,000 cells/well and cultured under normoxic conditions. To investigate the effect of compounds on hypoxic cancer cells, A549 cells were exposed to hypoxia (1% O2) for 24 h before treatment. […] Normoxic and hypoxic cells were treated with different concentrations of the tested compounds or vehicle (0.2% DMSO) for control cells. The cell viability was assessed after a 48 h incubation under normoxic or hypoxic conditions with the compounds. Briefly, WST-1 reagent was added to the cells and the percentage (%) of cell viability related to control cells was calculated by the expression [A] test/[A] control × 100 where [A] test is the absorbance of the cells treated with compounds and [A] control is the absorbance of control cells.

[2] = system: human lung adenocarcinoma A549 cells
Protocol: as §1, §2, §3, §4, §5

[3] = Stability (degradation kinetics, recovery) in different solvent environments by RP-UPLC; assay type: physicochemical; conditions: for half-life at 0.1 mg/mL: read-out: degradation t1/2 (converted)
Protocol: Chromatographic purification was performed on silica gel plates (Merck F254, Darmstadt, Germany) with the indicated eluents. Chemicals and solvents were obtained from commercial sources. The UPLC system consisted of an Acquity Ultra Performance LC Waters H-class system (Waters, Corporation, Milford, MA, USA). Chromatographic separation was achieved on an Acquity UPLC HSS T3 column (1.8 µm × 2.1 × 50 mm). The chromatographic peaks were identified with the Waters PDA eλ Acquity UPLC Detector. Compound 5b was monitored at a wavelength of 261 nm and compound 6b at 289 nm. All chromatographic experiments were performed in an isocratic mode. The mobile phase consisted of a mixture of solvents of chromatographic purity, acetonitrile/buffer (30:70 v/v). Buffer was a 0.01 M mixture of ammonium formate and formic acid pH = 2.4. The flow rate was set to 0.5 mL/min and the oven temperature to 25 °C. Compound samples were weighed on analytical scales with an accuracy of 0.01 mg. All the samples were prepared in 5, 10 and 25 mL volumetric flasks. Solution volume injections of 1.5 µL were performed with the use of an autosampler. Each sample was analysed three times and the run time analysis was five minutes. All solutions were filtered through a 0.45 µm membrane filter. The final result was presented as an arithmetical mean. The control of the UPLC system and detection was achieved by the Empower 3 Waters® software. Solvents for UPLC analysis were of UPLC grade and obtained from J. T. Baker (Center Valley, PA, USA). The method was validated in terms of precision, accuracy, specificity, detectability, and stability for compounds 5b and 6b.
Stability: Each medium (1 mL, 0.2% DMSO, water, 0.9% NaCl, and HCl pH = 1.5) was added to 10 mL volumetric flasks containing products 5b and 6b (1 mg). The flasks were filled up with the mobile phase. Each solution was analysed at t0 and after 6, 24, 48, and 72 h. The obtained calibration curve was used for the determination of degradation kinetics of the compounds in the solvents. The degradation kinetic parameters: rate constant (k) and t1/2 (half-life) were calculated with the use of Equation (3), where c0 is the concentration at time zero, c is the remaining concentration, k is the rate constant (h^−1) and t is the time (h): […]

[4] = as above; assay type: physicochemical; conditions: for half-life at 0.1 mg/mL: read-out: degradation t1/2 (converted); remark: listed apart in the source
[5] = read-out: IC50 A549 Hypoxia (H), A549 cells, hypoxia (1% O2, 24 h before treatment and during culture), 48 h incubation, WST-1, mean ± SD, n = 3
[6] = read-out: IC50 A549 Normoxia (O), A549 cells, normoxia, 48 h incubation, WST-1, mean ± SD, n = 3
[7] = Homo sapiens, A549, 48 h, read-out: IC50 A549 Normoxia (O), A549 cells, normoxia, 48 h incubation, WST-1, mean ± SD, n = 3
[8] = Homo sapiens, A549, read-out: IC50 A549 Hypoxia (H), A549 cells, hypoxia (1% O2, 24 h before treatment and during culture), 48 h incubation, WST-1, mean ± SD, n = 3

IC50 [1, 5] [µM]	IC50 [1, 6] [µM]	IC50 [1, 7] [µM]	IC50 [1, 8] [µM]	Compound	Differential cytotoxicity O/H (hypoxic/aerobic cytotoxicity coefficient) [1]	other results
35 ± 1.6	116 ± 1.9	–	–	2-(4-Chlorophenyl)-1H-benzimidazol-4,7-dione N-oxide [Compound 6a]	–	inhibition of the cell growth / decrease of cell viability compared to control cells ([1]; normoxia): 20%; Differential cytotoxicity O/H (hypoxic/aerobic cytotoxicity coefficient) [2]: 3.28
–	–	30.2 ± 1.2	36.1 ± 1.2	O=C1C=CC(=O)c2[nH]c(-c3ccc(Cl)cc3)nc21 [Compound 5a, 2-(4-Chlorophenyl)-1H-benzimidazol-4,7-dione]	0.83	inhibition of the cell growth / decrease of cell viability compared to control cells ([1]; normoxia): approximately 33%
–	100 ± 1.8	< 100	47.4 ± 1.1	O=C1C=CC(=O)c2[nH]c(-c3ccccc3[N+](=O)[O-])nc21 [Compound 5b, 2-(2-Nitrophenyl)-1H-benzimidazol-4,7-dione]	2.13	degradation rate constant k ([3]; 0.2% DMSO): 0.0002 h⁻¹; half-life at 0.1 mg/mL ([3]; 0.2% DMSO): 215 h; degradation rate constant k ([3]; 0.9% NaCl): 0.0004 h⁻¹; half-life at 0.1 mg/mL ([3]; 0.9% NaCl): 155 h; degradation ([3]; water, up to 72 h): did not suffer any degradation; half-life at 0.1 mg/mL ([3]; water, H2O): > 72 h; half-life at 0.1 mg/mL ([4]; MeOH): > 72 h; degradation ([4]; methanol, up to 72 h): did not suffer any degradation
–	–	80.9 ± 1.9	51.2 ± 1.5	O=C1C=CC(=O)c2[nH]c(-c3ccc4c(c3)OCO4)nc21 [Compound 5c, 2-Benzo[1,3]dioxol-1H-benzimidazol-4,7-dione]	1.58	–
232.4 ± 1.4	–	–	–	O=C1C=CC(=O)c2[nH]c(-c3ccc4ccccc4c3)nc21 [Compound 5d, 2-Naphthyl-1H-benzimidazol-4,7-dione]	2.06	–
–	–	–	116 ± 0.8	O=C1C=CC(=O)c2c1[nH]c(-c1ccccc1[N+](=O)[O-])[n+]2[O-] [Compound 6b, 2-(2-Nitrophenyl)-1H-benzimidazol-4,7-dione N-oxide]	4.31	degradation rate constant k ([3]; 0.2% DMSO): 0.00009 h⁻¹; half-life at 0.1 mg/mL ([3]; 0.2% DMSO): 413 h; degradation rate constant k ([3]; 0.9% NaCl): 0.0004 h⁻¹; half-life at 0.1 mg/mL ([3]; 0.9% NaCl): 142 h; degradation rate constant k ([3]; H2O): 0.0004 h⁻¹; half-life at 0.1 mg/mL ([3]; water, H2O): 146 h; degradation rate constant k ([4]; MeOH): 0.0002 h⁻¹; half-life at 0.1 mg/mL ([4]; MeOH): 161 h
–	–	79.5 ± 1.9	44 ± 2.5	O=C1C=CC(=O)c2c1[nH]c(-c1ccc3c(c1)OCO3)[n+]2[O-] [Compound 6c, 2-Benzo[1,3]dioxol-1H-benzimidazol-4,7-dione N-oxide]	1.80	–
96.8 ± 1.9	–	–	–	O=C1C=CC(=O)c2c1[nH]c(-c1ccc3ccccc3c1)[n+]2[O-] [Compound 6d, 2-Naphthyl-1H-benzimidazol-4,7-dione N-oxide]	2.62	–
–	166.2 ± 1.6	166	30 ± 1.5	Nc1n[n+]([O-])c2ccccc2[n+]1[O-] [Tirapazamine, reference compound]	–	–
